Patent US20100150884A1, “Anticancer Agent to Be Combined with Telomelysin” (priority 2005, published 2010)

Assays:
[1] = test system: various cancer cells cultured in vitro; assay: XTT assay, combined effect of Telomelysin and anticancer agent, cell strains not named individually; type: cell-based, human
Protocol: (§1) Telomelysin was infected to the following various cancer cells cultured in vitro at the concentrations of 0 (Mock), 0.1 or 1 MOI (multiplicity of infection). The cells used were as follows.
(§2) Specifically, 1×10^3 cells from each of the above cell strains were plated in a 96-well plate. After 24 hours, cells were counted and the virus was added to the culture broth at a concentration of 0.1 MOI or 1 MOI.
(§3) On the next day, docetaxel was added to the virus-infected cell culture broth at various concentrations (control, 0.1 nM, 1.0 nM, 10.0 nM and 100.0 nM).
(§4) On day 5 of infection, XTT assay was performed using a kit (Roche Diagnostics). Briefly, the culture broth was removed from the plate. A reaction solution containing XTT reagent was prepared and added to the plate. Cells were cultured for about 4 hours. Then, absorbance was measured with a microtiter plate (ELISA) reader, and the number of viable cells was calculated to thereby confirm antitumor effect.
XTT assays were performed in the same manner as described above using microtubule inhibitor vinorelbine and topoisomerase I inhibitor SN-38 (CPT-11 metabolite) as anticancer agents combined with Telomelysin.

[2] = test system: tumor cells; assay: Cell cycle analysis with PI (propidium iodide) using flow cytometry; type: cell-based; settings: for sub G0/G1: after G2/M arrest; for cell cycle arrest: began 12 hours after administration
Text: The influence of the substance having an antitumor effect and the recombinant virus used in combination in the pharmaceutical composition of the present invention upon the cell cycle of target cells may be examined, for example, by analyzing cell cycle with a nuclear dye PI (propidium iodide) using flow cytometry.
As a result of cell death, cell membranes become unable to retain their states and nuclei are readily stained with a nuclear dye such as PI mentioned above. Therefore, DNA content and cell cycle can be judged from the results of nuclear staining with PI. Here, it should be note that when ratios of S phase and G2/M phase in cell cycle are high in tumor cells, the malignancy is judged to be high.
Cell cycle was analyzed with PI (propidium iodide) using flow cytometry.

[3] = test system: H1299 lung cancer cell tumor; assay: In vivo antitumor effect, H1299 subcutaneous tumor, tumor size; design: species or system nude mice; settings: combination: Telomelysin intratumoral 1×10^7 pfu and docetaxel 12.5 mg/kg intraperitoneal, three times
Protocol: H1299 was inoculated subcutaneously at the back of 5-week old nude mice. One, three and five days after the tumor reached 5-10 mm in size, Telomelysin was administered intratumorally at a dose of 1×10^7 pfu/50 μl/mouse and docetaxel was administered at a dose of 12.5 mg/kg intraperitoneally both three times in the total. As a control, PBS was administered intratumorally and intraperitoneally. Tumor size was measured in every three days.

[4] = test system: human lung cancer cell H1299 and human large bowel cancer cell SW620; assay: Quantitative real-time PCR of E1A gene, proliferation/replication of Telomelysin; type: cell-based; settings: Telomelysin 0.1 MOI in combination with docetaxel versus alone
Protocol: How the proliferation of Telomelysin would be affected when an anticancer agent acting on microtubule is combined with Telomelysin was analyzed by quantitative real-time PCR.
Human lung cancer cell H1299 and human large bowel cancer cell SW620 were infected with Telomelysin at 0.1 MOI for 2 hours. Two hours thereafter, docetaxel was administered. At 12, 24, 36, 48 and 60 hours after the infection, cells were harvested. DNA contained in the cells and in the supernatant was extracted separately. Real-time PCR was performed using primers targeting the E1A gene carried by Telomelysin, to thereby analyze viral proliferation/replication quantitatively. Specifically, 2 μl of DNA extract was added to 18 μl of PCR solution. PCR was performed using E1A primers under the following conditions.
Composition of the PCR solution: • 1×LC FastStart DNA Master SYBR Green I • 3 mM MgCl2 • 0.5 μM each primer Reaction conditions: • 95° C., 10 min • (95° C., 10 sec; 60° C., 15 sec; 72° C., 8 sec)×40 cycles • 70° C., 15 sec • 40° C., 30 sec

[5] = test system: H1299 cells; assay: XTT assay, combined effect of Telomelysin and anticancer agent; type: cell-based, human; settings: low concentrations of docetaxel combined with Telomelysin 0.1 MOI; day 5 of infection
Protocol: as §1, §2, §3, §4

[6] = test system: LNCaP cells; assay: as above; type: cell-based, human; settings: docetaxel combined with Telomelysin; day 5 of infection
Protocol: as §1, §2, §3, §4

[7] = test system: HepG2 cells; assay: as above; type: cell-based, human; settings: docetaxel combined with Telomelysin; day 5 of infection
Protocol: as §1, §2, §3, §4

[8] = test system: T.Tn cells; assay: as above; type: cell-based, human
Protocol: as §1, §2, §3, §4

[9] = test system: H226Br cells; assay: as above; type: cell-based, human
Protocol: as §1, §2, §3, §4

[10] = test system: liver; assay: HE staining of liver after intratumoral administration; type: in vivo, nude mice; settings: Telomelysin in combination with docetaxel; six days after the final administration
Protocol: (§5) H1299 was inoculated subcutaneously at the back of 5-week old nude mice. When the tumor reached 5-10 mm in size, Telomelysin was administered intratumorally. Six days after the final administration, tumor tissue and liver were stained with HE as described below. Briefly, tissue sections were prepared, deparaffinized and washed with water. Then, distilled water was fed to the tissue section. Hematoxylin solution was added thereto and left stationary for 20 minutes. Then, the section was rinsed with water lightly. The resultant section was fractionated with 1% hydrochloric acid/70% alcohol, followed by color development. Then, the tissue section was washed with water for 10 minutes, passed through 80% ethanol, and dipped in eosin solution for 10 minutes. Subsequently, the tissue section was washed with water lightly, dehydrated, cleared and mounted to thereby perform HE staining.

[11] = test system: H1299 tumor tissue; assay: HE staining of tumor tissue after intratumoral administration; type: in vivo, nude mice; settings: Telomelysin in combination with docetaxel; six days after the final administration
Protocol: as §5

[12] = Telomelysin and docetaxel in combination
[13] = docetaxel combined with Telomelysin, day 5 of infection

CCc1c2c(nc3ccc(O)cc13)-c1cc3c(c(=O)n1C2)COC(=O)[C@]3(O)CC [SN-38]
combined effect (antitumor effect, viable cells) ([1]; SN-38 combined with Telomelysin, when the concentration of SN-38 was low): combined effect was observed | sensitivity of cell strains to SN-38 ([1]; any of the cell strains tested): has sensitivity

CC(=O)O[C@@]12CO[C@@H]1C[C@H](O)[C@@]1(C)C(=O)[C@H](O)C3=C(C)[C@@H](OC(=O)[C@H](O)[C@@H](NC(=O)OC(C)(C)C)c4ccccc4)C[C@@](O)([C@@H](OC(=O)c4ccccc4)[C@H]21)C3(C)C [docetaxel]
apoptosis observed [2, 12]: apoptosis (DNA fragmentation) | sub G0/G1 [2, 12]: increased gradually | cell cycle arrest [2, 12]: G2/M arrest | apoptosis observed ([2]; docetaxel administered alone): apoptosis (DNA fragmentation) | sub G0/G1 ([2]; docetaxel administered alone): increased gradually | cell cycle arrest ([2]; docetaxel administered alone): G2/M arrest | antitumor effect (tumor size) compared to the control group and single use groups [3]: still more significant antitumor effect | proliferation efficiency of Telomelysin diffused in supernatant (E1A DNA) [4]: equal proliferation efficiency | combined effect (antitumor effect, viable cells) [5]: especially remarkable | combined effect (antitumor effect, viable cells) [6]: evident combined effect was not observed | combined effect (antitumor effect, viable cells) [7]: evident combined effect was not observed | combined effect (antitumor effect, viable cells) [8, 13]: evident combined effect was not observed | sensitivity of cell strain to docetaxel ([8]; docetaxel itself): sensitivity to docetaxel itself | combined effect (antitumor effect, viable cells) [9, 13]: evident combined effect was not observed | sensitivity of cell strain to docetaxel ([9]; docetaxel itself): sensitivity to docetaxel itself | toxicity in liver tissue [10]: Toxicity was not observed | hyaline degeneration of tumor cells [11]: observed in a wide range

CCC1=C[C@@H]2CN(C1)Cc1c([nH]c3ccccc13)[C@@](C(=O)OC)(c1cc3c(cc1OC)N(C)[C@H]1[C@@](O)(C(=O)OC)[C@H](OC(C)=O)[C@]4(CC)C=CCN5CC[C@]31[C@@H]54)C2 [vinorelbine]
combined effect (antitumor effect, viable cells) ([1]; vinorelbine combined with Telomelysin): combined effect almost equal to that shown by docetaxel
